Source: PubChem BioAssay AID179 (DTP/NCI, 2004)
Where “and” joins values, the source holds several entries; their conditions need not be identical. Identical values can stand only once. Calls of active or inactive are those of the source.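 Rule for the calls: active = compounds giving half or more protection of infected cells from virus-caused growth loss, again on retest; inactive = the rest.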

Tested on: CEM cells HIV-1 protection, formazan growth assay
Assay: NCI AIDS Antiviral Assay
Conditions: for IC50: measured here: growth of uninfected CEM cells
Summary of the method: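 Category rules: moderately active means at least 50% protection on retest, and confirmed active means 100% protection reproducibly. The underlying data came from a formazan growth assay in HIV-1-infected CEM cells.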

Row | SMILES | EC50 | IC50 | outcome
1 | CC1(C)OCC=CCO1 | > 200 µM | > 200 µM | –
2 | Clc1ccc(CN2COc3c(ccc4ccccc34)C2)cc1 | > 200 µM | 70.8 µM | –
3 | NC1CCCCCCC1 | > 200 µM | > 200 µM | –
4 | CC(C)(C)c1ccc(Oc2ccc(C#N)c(C#N)c2)c(C(C)(C)C)c1 | > 77.6 µM | > 77.6 µM | –
5 | CC(C)(C)OC(=O)NCCc1ccc(N)cc1 | > 200 µM | 158 µM | –
6 | Cc1ccc2c3ccc4c(c3n(C)c2c1)C(=O)C=CC4=O | > 100 µM | 1.82 µM | –
7 | CC(C)/C(Cl)=N\OC(=O)Nc1cccc(Cl)c1 | > 200 µM | 5.01 µM | –
8 | COC(=O)Cc1nn2c(nc1=O)sc1ccc3ccccc3c12 | > 69.2 µM | > 69.2 µM | –
9 | O=c1cc(O)nc2cn[nH]n12 | > 234 µM | > 234 µM | –
10 | COc1ccc2nc3cc(Cl)ccc3c(Sc3ccc([N+](=O)[O-])cc3C)c2c1 | > 12.6 µM | > 12.6 µM | –
11 | COc1ccc(OC)c(NC(=O)CCC/C(CC(=O)c2ccc(O)c(OC)c2)=N\Nc2nnc(C)n2N)c1 | > 7.24 µM | > 7.24 µM | –
12 | COC(=O)N1CC2C3C4CC(C(c5ccccc5)=C4c4ccccc4)C3C21 (stereo unspecified) | > 200 µM | 29.5 µM | –
13 | N#C/C(=C/N1C(=O)/C(=C/c2ccc([N+](=O)[O-])cc2)SC1=S)c1nc2ccccc2s1 | > 200 µM | 15.5 µM | –
14 | CC(=O)OC1CCC2(C)CC3C=CC2(OO3)C1(C)C (stereo unspecified) | > 200 µM | 10.7 µM | –
15 | CC/C=C\C/C=C\C/C=C\CCCCCCCC(=O)OCC(COC1OC(CS(=O)(=O)O)C(O)C(O)C1O)OC(=O)CCCCCCCCCCCCCCC (stereo unspecified) | > 10 µM | 5.62 µM | –
16 | CC1(C)O[C@@H](CP(c2ccc3ccccc3c2)c2ccc3ccccc3c2)[C@H](CP(c2ccc3ccccc3c2)c2ccc3ccccc3c2)O1 | > 200 µM | 129 µM | –
17 | CCOC(=O)C(C)c1nc2cc(F)c(F)cc2[nH]c1=O (stereo unspecified) | > 200 µM | > 200 µM | –
18 | Nc1nc(NNc2ccccc2F)cc(=O)[nH]1 | > 200 µM | 28.2 µM | –
19 | NC(=O)C1CCCN1C(=O)C(Cc1cnc[nH]1)NC(=O)C1CCCC1 (stereo unspecified) | > 200 µM | > 200 µM | –
20 | CCOC(=O)Cc1cnc(NC(NC(=O)CC)(C(F)(F)F)C(F)(F)F)s1 | > 200 µM | > 200 µM | –
21 | O=C1CC2(C(=O)N1CN1CCOCC1)c1ccccc1-c1ccccc12 | > 102 µM | 13.8 µM | –
22 | COc1cccc(-c2nnc(N)o2)c1 | – | – | inactive

Row | SMILES | EC50 | IC50 | outcome
23 | O=C1NC2(CCN(CCc3ccccc3)CC2)Oc2ccccc21 | > 200 µM | 191 µM | –
24 | CC(=O)C(N=Nc1nc2ccc(Cl)cc2[nH]1)C(C)=O | > 200 µM | 28.8 µM | –
25 | COc1ccc(-c2cc(-c3ccncc3)nc(N)c2-c2ccc(F)cc2)cc1 | > 174 µM | > 174 µM | –
26 | CC/C=C/C(O[Si](C)(C)C(C)(C)C)C1CC2OC(=O)CCCC2O1 (stereo unspecified) | > 708 µM | > 708 µM | –
27 | O=C(O)c1nc2cc(C(F)(F)F)ccc2nc1Nc1ccc(F)cc1 | > 200 µM | 7.76 µM | –
28 | Nc1ncn(C2OC(COP(=O)(O)O)C(O)C2O)c(=O)n1 (stereo unspecified) | > 200 µM | 8.51 µM | –
29 | N#C[C@@H](c1nc2ccccc2s1)c1ncccc1[N+](=O)[O-] | > 200 µM | 20 µM | –
30 | O=C1c2c(ccc3c2CCCC3)CC12Cc1ccc3c(c1C2=O)CCCC3 | > 200 µM | > 200 µM | –
31 | Cc1cccc(NC(=O)CC(=O)N2N=C(N3c4ccccc4Sc4ccccc43)CC2c2ccccc2)c1 (stereo unspecified) | > 151 µM | > 151 µM | –
32 | CCCCSc1cc(Cc2cc(C)ccc2O)c(O)c(Cc2cc(C)ccc2O)c1 | > 200 µM | 10 µM | –
33 | Cc1cc(S(=O)(=O)Nc2nc3ccccc3[nH]2)c(S)cc1Cl | > 200 µM | 55 µM | –
34 | NCCSSCc1ccccc1CSSCCN | – | – | inactive
35 | O=S(=O)(N/N=C1\CC2CCC1C2)c1ccccc1 (stereo unspecified) | > 200 µM | > 200 µM | –
36 | CCOC(=O)C(=Cc1ccc(-c2ccccc2)cc1)C(=O)OCC | > 16.2 µM | 10.5 µM | –
37 | c1cc2n(n1)CCN2 | > 2290 µM | 170 µM | –
38 | N#Cc1cccc(/C=N/N=C(\N)NO)c1 | > 479 µM | 37.2 µM | –
39 | COc1ccc(N2C(=O)/C(=C\c3cccc(Oc4ccccc4)c3)SC2c2ccccc2)cc1 (stereo unspecified) | > 200 µM | 8.51 µM | –
40 | O=C(O)c1ccccc1P(=O)(O)c1ccccc1 | > 200 µM | > 200 µM | –
41 | O=Nc1c(-c2ccccc2)nc2cc(-c3ccccc3)[nH]n12 | > 18.2 µM | > 18.2 µM | –
42 | CC(C)(CO)NC(=O)c1cccc(C(=O)NC(C)(C)CO)c1Br | > 200 µM | > 200 µM | –
43 | CC(Nc1n[nH]c(=O)c2c1nnn2Cc1ccccc1)c1ccccc1 (stereo unspecified) | 55 µM and 126 µM | 97.7 µM and 447 µM | –
44 | Cc1cccc(-n2c(=S)[nH]c3c(sc(=O)n3-c3ccccc3C)c2=O)c1 | > 2 µM | > 2 µM | –
